US9987379B2, “Molecular probes for imaging of myelin” (Case Western Reserve University, priority 2008, dated 2018)

How the values were obtained:
[1] = tested on: myelinated corpus callosum and cerebellum; test: In vitro staining of myelinated white matter in mouse brain tissue sections (fluorescent microscopy); format: binding; conditions: 10 μM, wild-type mouse brain sections
Protocol: We then evaluated the myelin-binding properties of the newly synthesized compounds 3, 6, and 7 through in vitro staining of mouse brain tissue sections. Both myelinated corpus callosum and cerebellar regions were then examined by fluorescent microscopy.
Normal control mice were deeply anesthetized and perfused transcardially with saline (10 mL) followed by fixation with 4% PFA in PBS (10 mL, 4° C., pH 7.6). Brain tissues were then removed, postfixed by immersion in 4% PFA overnight, dehydrated in 30% sucrose solution, embedded in freezing compound (OCT, Fisher Scientific, Suwanee, Ga.), cryostat sectioned at 10 μm on a microtome and mounted on superfrost slides (Fisher Scientific). The brain sections were incubated with compound 3, 6 and 7 (10 μM, 1% DMSO in PBS (10 mM, pH 7.0)) for 20 minutes at room temperature in dark. Excess compounds were washed by briefly rinsing the slides in PBS (10 mM, pH 7.0) and coversliped with fluoromount-G mounting media (Vector Laboratories, Burlingame, Calif.). Sections were then examined under a Leica DRMB microscope equipped for fluorescence.

[2] = target: [3H]BMB binding sites on rat myelin fractions; test: Competition binding assay using [3H]BMB as radioligand in isolated myelin fractions; conditions: 1.87 nM [3H]BMB, Cheng-Prusoff from IC50
Protocol: FIG. 4 illustrates plots of competition binding assays of test compounds using [^3H]BMB as the radioligand in isolated myelin fractions. The concentrations that inhibited 50% of specific binding of [^3H]BMB (IC50 values) were converted to inhibition constant (Ki). Ki values were calculated using the Cheng-Prusoff equation: Ki=IC50/(1+[L]/Kd), where [L] is the concentration of [^3H]BMB used in the assay. Data are means of three independent measurements done in duplicate.
In vitro binding assay using radioligand is the most sensitive techniques available to quantitatively determine the binding affinities of compounds to certain proteins. Our previous studies have shown that BMB binds to myelin sheaths with high affinity and specifity (Stankoff, B.; Wang, Y.; Bottlaender, M.; Aigrot, M. S.; Dolle, F. et al. Imaging of CNS myelin by positron-emission tomography. Proc Natl Acad Sci USA 2006, 103, 9304-9309). For this reason, tritiated BMB was custom synthesized by American Radiolabeled Chemicals Inc. (St Louis, Mo.) and was used as the radioligand for binding assays. This allowed us to determine the binding affinities of the newly synthesized compounds using isolated rat myelin fractions. Saturation experiment was first conducted using [^3H]BMB. […] Competitive binding assays were also conducted using [^3H]BMB as radioligand. The stilbene derivatives competed effectively with [^3H]BMB binding sites on rat myelin fractions at affinities of low micromole concentrations.
(§1) Sprague-Dawley (SD) rats were asphyxiated with CO2. When the rat had stopped breathing, the skin/fur over the neck was wetted with a spray of 70% ethanol. […] The concentration of myelin and pellet were determined by Bio-Rad Protein Assay.
The radioligand-based binding assays were carried out in 12×75 mm borosilicate glass tubes. […] Nonspecific binding was defined in the presence of cold BMB (1 μM, diluted in PBS (containing 1% DMSO) in the same assay tubes. For the competition binding, 10^−5 to 10^−10 M compounds and 1.87 nM [^3H]BMB were used for the studies. The mixture was incubated at 37° C. for 2 hrs. The bound and free radioactivity were separated by rapid vacuum filtration through Whatman GF/B filters using a Brandel M-24R cell harvester followed by 3×2 mL washes of PBS at room temperature. Filters containing the bound radioligand were dissolved in 6 mL biodegradable counting cocktail overnight and the radioactivity was assayed next day in the scintillation counter (Beckman) with 42% counting efficiency. The results of saturation and inhibition experiments were subjected to nonlinear regression analysis using Graph Pad Prism 4 by which Kd and Ki values were calculated.

[3] = Solubility in organic solvents; format: physicochemical
non-myelin pellets = test: Spectrophotometry-based binding assay with non-myelin pellets; parameters: species or system rat; conditions: 1 h room temperature; for binding to non-myelin fractions: 10 μM compound per tube; for concentration of free, unbound compound (constant and close to the total concentration initially used): incubated with non-myelin pellet at increasing concentration
Protocol: (§2) FIG. 2 illustrates plots of the concentrations of free, unbound 6 and 7 following incubation with isolated myelin fractions and non-myelin pellets based upon a spectroscopic assay. In these assays, 10 μM of 6 and 7 was added to each solution containing myelin fractions or non-myelin pellets at various concentrations ranging from 0-2.5 μg per tube. Each data point was repeated in triplicate and an average was used.
Binding affinities of newly synthesized compounds 6 and 7 were determined based on spectrophotometry. Myelin sheaths and non-myelin pellets were extracted from rat's brain homogenates according to subcellular fraction protocol (Martenson, R. E.; Deibler, G. E.; Kies, M. W. Extraction of rat myelin basic protein free of other basic proteins of whole central nervous system tissue. An analysis of its electrophoretic heterogeneity. J Biol Chem 1969, 244, 4268-4272). Briefly, the homogenates were successively mixed with different concentrations of sucrose and spun in a Beckman ultracentrifuge. Myelin sheaths and non-myelin containing pellets were well separated according to their different densities and located in different layers of sucrose. The proteins were then collected and washed thoroughly with Colman buffer (10 mM). The desired proteins were aliquoted and frozen at −80° C. for up to 6 months without noticeable change in its properties determined by electrophoresis (data not shown). Prior to binding assays, the protein fractions (myelin and pellet) were thawed and diluted with PBS (10 mM, pH 7.0). A series of concentrations of the protein fractions were incubated with tested compounds (6 and 7, 12.5 μM) for 1 h at room temperature. The free and bound tested compounds were then separated by centrifuging at 6000 rpm for 10 min and quantified.
as §1
In the spectrophotometry-based binding assays, a solution of 6 or 7 (800 μL, 12.5 μM) dissolved in 10% DMSO buffer solution containing 10 mM MgCl2 and 10 mM PBS (pH 7.4) was incubated with isolated myelin or pellets at different concentrations ranging from 0.06 to 14 μg/tube. […] Following incubation at room temperature for 1 hr, the free and bound 6 or 7 was separated by centrifugation at 6000 rpm for 10 min The supernatant was then collected and the UV absorption of free 6 or 7 determined by UV spectrometer were at 350 nm or 363 nm. […] In parallel, non-specific binding was determined using pellets under the same condition. […]

[4] = tested on: isolated myelin fractions; test: Spectrophotometry-based binding assay with isolated myelin fractions; parameters: species or system rat; conditions: 10 μM compound per tube, 1 h room temperature
Protocol: as §2
Binding affinities of newly synthesized compounds 6 and 7 were determined based on spectrophotometry. […] The desired proteins were aliquoted and frozen at −80° C. for up to 6 months without noticeable change in its properties determined by electrophoresis (data not shown). […] The free and bound tested compounds were then separated by centrifuging at 6000 rpm for 10 min and quantified.
Sprague-Dawley (SD) rats were asphyxiated with CO2. […] The concentration of myelin and pellet were determined by Bio-Rad Protein Assay.
In the spectrophotometry-based binding assays, a solution of 6 or 7 (800 μL, 12.5 μM) dissolved in 10% DMSO buffer solution containing 10 mM MgCl2 and 10 mM PBS (pH 7.4) was incubated with isolated myelin or pellets at different concentrations ranging from 0.06 to 14 μg/tube. […] In parallel, non-specific binding was determined using pellets under the same condition. […]

myelinated cerebellum = test: In situ tissue staining of myelinated white matter after tail vein injection; format: in vivo, mouse; conditions: 20-80 mg/kg tail vein, three hours post injection, wild-type mice
Protocol: Following our in vitro tissue staining studies, we then evaluated the brain permeability and subsequent myelin-binding properties of 6 and 7 in the mouse brain. A dose of 6 or 7 (20-80 mg/kg) was administered via tail vein injection into wild-type mice. Three hours post injection, the mouse brains were perfused with saline followed by 4% paraformaldehyde (PFA) and removed. The fresh frozen brains were then sectioned. Fluorescent staining of myelinated regions such as the cerebellum were then directly examined under a microscope.
Under anesthesia, wild-type mice were injected with compounds 6 and 7 (20-80 mg/kg) via the tail vein, and the mice were then perfused transcardially with saline (10 ml) followed by 4% PFA in PBS (10 ml, 4° C., pH 7.6). Brain tissues were then removed, postfixed by immersion in 4% PFA overnight, dehydrated in 30% sucrose solution, cryostat sectioned at 16 μm on a microtome and mounted on superfrost slides (Fisher Scientific), and imaged directly under fluorescent microscopy without any further staining.

Row | Ki [2] [nM] | binding to non-myelin fractions (non-myelin pellets) | concentration of free, unbound compound (constant and close to the total concentration initially used) (non-myelin pellets) [µM] | binding to myelin fractions (free concentration decreased proportionally with myelin concentration) [4] | SMILES | in vitro fluorescent staining of brain tissue sections [1] | solubility [3] | brain entry and in situ labeling of myelin (myelinated cerebellum)
1 | 370 |  |  |  | Nc1ccc(/C=C/c2ccc(N)cc2)cc1 [Compound 3, (E)-4,4′-diamino-trans-stilbene] | selectively labeled both corpus callosum and cerebellum | soluble in EtOH, CH2Cl2, DMSO and other organic solvents | 
2 | 119 | no binding to the non-myelin fractions | ~10.47 | specific binding interactions exist | CN(C)c1ccc(/C=C/c2ccc(N)cc2)cc1 [Compound 6, (E)-dimethyl-{4-[2-(4-amino-phenyl)-vinyl]-phenyl}-amine] | selectively labeled both corpus callosum and cerebellum | soluble in EtOH, CH2Cl2, DMSO and other organic solvents | readily entered the mouse brain and selectively labeled myelinated cerebellum
3 | 126 | no binding to the non-myelin fractions | ~10.53 | specific binding interactions exist | CNc1ccc(C=Cc2ccc(N)cc2)cc1 [Compound 7, N-methyl-{4-[2-(4-amino-phenyl)-vinyl]-phenyl}-amine] | selectively labeled both corpus callosum and cerebellum | soluble in EtOH, CH2Cl2, DMSO and other organic solvents | readily entered the mouse brain and selectively labeled myelinated cerebellum
4 | 494 |  |  |  | Nc1ccc(C=Cc2ccc(I)cc2)cc1 [Compound 9, 4-[2-(4-Iodo-phenyl)-vinyl]-phenylamine] |  |  | 
